Source: PMC6199744, “Development of Chemical Proteomics for the Folateome and Analysis of the Kinetoplastid Folateome” (ACS Infectious Diseases, 2018)
Where two headings read alike, the source gives them in different places.

Legend:
Assay type in all cases: binding
[1] = target: T1, HeLa cell extract proteins (Homo sapiens, UniProt O75947)
T1 construct: endogenous in cells; host or cells: HeLa cell extract

[2] = target: T2, HeLa cell extract proteins (Homo sapiens, UniProt Q01105)
T2 construct: endogenous in cells; host or cells: HeLa cell extract
T2 sequence (Q01105 whole entry): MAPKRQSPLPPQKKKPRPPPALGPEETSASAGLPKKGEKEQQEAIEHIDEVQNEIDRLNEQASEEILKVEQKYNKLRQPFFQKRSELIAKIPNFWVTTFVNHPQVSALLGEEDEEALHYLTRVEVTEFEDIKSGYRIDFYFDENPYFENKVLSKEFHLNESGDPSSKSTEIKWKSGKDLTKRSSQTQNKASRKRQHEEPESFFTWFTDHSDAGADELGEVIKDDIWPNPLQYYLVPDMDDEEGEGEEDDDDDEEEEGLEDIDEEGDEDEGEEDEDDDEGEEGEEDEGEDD

[3] = target: T3, HeLa cell extract proteins (Homo sapiens, UniProt P53621)
T3 construct: endogenous in cells; host or cells: HeLa cell extract
T3 sequence (P53621 1-1224): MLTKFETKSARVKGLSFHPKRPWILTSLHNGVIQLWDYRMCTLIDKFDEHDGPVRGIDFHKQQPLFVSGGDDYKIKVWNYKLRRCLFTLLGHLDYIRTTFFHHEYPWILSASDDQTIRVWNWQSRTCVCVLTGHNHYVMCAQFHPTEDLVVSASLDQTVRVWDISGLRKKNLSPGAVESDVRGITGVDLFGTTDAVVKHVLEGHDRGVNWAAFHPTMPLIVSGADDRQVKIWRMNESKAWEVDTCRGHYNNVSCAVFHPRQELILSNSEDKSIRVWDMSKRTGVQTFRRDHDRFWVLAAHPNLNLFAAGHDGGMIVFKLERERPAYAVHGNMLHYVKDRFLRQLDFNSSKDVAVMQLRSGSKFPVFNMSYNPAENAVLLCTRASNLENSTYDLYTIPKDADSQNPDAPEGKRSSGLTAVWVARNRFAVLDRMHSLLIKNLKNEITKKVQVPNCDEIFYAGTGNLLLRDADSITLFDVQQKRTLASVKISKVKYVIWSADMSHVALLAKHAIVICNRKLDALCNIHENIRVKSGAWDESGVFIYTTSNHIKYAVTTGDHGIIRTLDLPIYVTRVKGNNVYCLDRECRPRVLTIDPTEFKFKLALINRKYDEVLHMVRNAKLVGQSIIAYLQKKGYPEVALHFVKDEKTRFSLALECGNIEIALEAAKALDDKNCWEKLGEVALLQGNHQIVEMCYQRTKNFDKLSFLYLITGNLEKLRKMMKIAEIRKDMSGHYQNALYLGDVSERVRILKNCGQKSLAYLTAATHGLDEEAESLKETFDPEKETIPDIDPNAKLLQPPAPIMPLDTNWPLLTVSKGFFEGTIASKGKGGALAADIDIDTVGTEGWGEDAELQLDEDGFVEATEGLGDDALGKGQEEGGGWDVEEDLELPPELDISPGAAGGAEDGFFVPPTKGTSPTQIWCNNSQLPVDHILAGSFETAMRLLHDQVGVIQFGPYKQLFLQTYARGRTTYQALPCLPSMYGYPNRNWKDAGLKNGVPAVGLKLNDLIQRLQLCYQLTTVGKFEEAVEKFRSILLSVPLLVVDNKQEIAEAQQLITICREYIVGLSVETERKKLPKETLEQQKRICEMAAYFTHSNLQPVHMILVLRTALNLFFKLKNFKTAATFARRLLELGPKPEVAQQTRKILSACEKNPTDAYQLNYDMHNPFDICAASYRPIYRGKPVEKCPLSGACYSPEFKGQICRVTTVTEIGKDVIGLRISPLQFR

[4] = target: T4, HeLa cell extract proteins (Homo sapiens, UniProt P08237)
T4 construct: endogenous in cells; host or cells: HeLa cell extract
T4 sequence (P08237 1-780): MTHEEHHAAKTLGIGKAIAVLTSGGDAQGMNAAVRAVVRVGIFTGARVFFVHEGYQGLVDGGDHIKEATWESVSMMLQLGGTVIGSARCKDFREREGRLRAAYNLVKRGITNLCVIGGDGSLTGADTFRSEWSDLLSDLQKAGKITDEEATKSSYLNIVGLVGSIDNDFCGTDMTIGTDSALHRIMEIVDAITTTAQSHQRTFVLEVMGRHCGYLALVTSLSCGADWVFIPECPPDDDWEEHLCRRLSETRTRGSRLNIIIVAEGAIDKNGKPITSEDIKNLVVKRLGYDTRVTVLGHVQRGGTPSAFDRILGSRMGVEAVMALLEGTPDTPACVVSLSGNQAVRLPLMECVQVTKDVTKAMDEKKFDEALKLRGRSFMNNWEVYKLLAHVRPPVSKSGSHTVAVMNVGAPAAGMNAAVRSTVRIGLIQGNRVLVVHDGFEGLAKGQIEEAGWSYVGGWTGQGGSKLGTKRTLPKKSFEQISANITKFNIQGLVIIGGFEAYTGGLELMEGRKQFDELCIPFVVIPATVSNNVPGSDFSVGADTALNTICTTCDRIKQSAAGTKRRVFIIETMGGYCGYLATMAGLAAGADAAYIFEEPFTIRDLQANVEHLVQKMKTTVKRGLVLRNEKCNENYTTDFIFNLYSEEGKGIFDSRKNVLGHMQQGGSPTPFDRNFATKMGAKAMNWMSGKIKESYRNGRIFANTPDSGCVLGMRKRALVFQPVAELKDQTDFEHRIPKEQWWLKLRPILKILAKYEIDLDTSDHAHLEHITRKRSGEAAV

[5] = target: T5, HeLa cell extract proteins (Homo sapiens, UniProt Q9H1A4)
T5 construct: endogenous in cells; host or cells: HeLa cell extract
T5 sequence (Q9H1A4 whole entry): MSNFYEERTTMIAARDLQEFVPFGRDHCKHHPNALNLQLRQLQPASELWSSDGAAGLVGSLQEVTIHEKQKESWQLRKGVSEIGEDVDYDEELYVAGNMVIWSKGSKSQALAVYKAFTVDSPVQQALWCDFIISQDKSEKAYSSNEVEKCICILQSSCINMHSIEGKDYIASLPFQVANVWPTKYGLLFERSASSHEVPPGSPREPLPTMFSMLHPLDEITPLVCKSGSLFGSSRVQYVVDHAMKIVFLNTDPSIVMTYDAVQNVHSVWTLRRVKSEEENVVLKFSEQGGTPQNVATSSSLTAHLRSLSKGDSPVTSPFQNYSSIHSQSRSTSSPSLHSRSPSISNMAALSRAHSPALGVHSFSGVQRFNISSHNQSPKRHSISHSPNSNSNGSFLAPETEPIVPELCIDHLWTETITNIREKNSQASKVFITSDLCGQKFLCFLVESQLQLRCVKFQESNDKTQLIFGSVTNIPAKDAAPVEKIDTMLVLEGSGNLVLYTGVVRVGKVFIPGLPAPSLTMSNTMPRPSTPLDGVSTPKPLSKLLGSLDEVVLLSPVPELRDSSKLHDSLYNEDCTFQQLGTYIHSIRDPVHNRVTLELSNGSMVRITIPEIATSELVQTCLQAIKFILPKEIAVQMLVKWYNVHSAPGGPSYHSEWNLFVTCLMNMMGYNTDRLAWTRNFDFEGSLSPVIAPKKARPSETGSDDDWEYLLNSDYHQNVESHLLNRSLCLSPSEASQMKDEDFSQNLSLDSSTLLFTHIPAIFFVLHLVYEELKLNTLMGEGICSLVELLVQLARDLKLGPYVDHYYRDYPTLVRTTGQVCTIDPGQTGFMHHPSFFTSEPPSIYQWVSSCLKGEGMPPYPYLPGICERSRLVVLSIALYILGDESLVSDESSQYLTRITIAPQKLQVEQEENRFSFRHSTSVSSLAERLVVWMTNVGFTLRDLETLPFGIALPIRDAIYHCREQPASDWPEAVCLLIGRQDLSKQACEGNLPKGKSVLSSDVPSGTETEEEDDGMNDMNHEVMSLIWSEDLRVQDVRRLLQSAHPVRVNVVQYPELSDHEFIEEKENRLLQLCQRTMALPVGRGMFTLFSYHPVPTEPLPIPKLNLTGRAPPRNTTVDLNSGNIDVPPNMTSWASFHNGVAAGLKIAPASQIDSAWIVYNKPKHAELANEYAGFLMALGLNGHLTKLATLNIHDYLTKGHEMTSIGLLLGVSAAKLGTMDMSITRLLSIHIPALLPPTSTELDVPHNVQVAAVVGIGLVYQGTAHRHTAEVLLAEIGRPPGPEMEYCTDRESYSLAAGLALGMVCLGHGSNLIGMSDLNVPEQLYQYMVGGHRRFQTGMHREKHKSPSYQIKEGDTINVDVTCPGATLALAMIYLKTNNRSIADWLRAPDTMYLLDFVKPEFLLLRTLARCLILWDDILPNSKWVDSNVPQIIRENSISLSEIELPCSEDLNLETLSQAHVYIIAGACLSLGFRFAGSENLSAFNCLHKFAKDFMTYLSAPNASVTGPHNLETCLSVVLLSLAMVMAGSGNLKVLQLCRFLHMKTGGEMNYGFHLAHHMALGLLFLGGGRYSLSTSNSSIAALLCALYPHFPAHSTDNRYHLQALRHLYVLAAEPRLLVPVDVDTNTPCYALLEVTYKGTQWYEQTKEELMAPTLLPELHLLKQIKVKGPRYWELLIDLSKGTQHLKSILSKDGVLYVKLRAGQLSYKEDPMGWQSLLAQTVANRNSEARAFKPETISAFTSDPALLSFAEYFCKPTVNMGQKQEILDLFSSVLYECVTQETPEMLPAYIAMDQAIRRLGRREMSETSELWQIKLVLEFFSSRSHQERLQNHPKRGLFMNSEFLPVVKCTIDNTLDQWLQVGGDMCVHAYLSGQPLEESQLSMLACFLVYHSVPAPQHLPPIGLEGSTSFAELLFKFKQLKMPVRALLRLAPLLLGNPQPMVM

[6] = target: T6, HeLa cell extract proteins (Homo sapiens, UniProt P13674)
T6 construct: endogenous in cells; host or cells: HeLa cell extract
T6 sequence (P13674 18-534): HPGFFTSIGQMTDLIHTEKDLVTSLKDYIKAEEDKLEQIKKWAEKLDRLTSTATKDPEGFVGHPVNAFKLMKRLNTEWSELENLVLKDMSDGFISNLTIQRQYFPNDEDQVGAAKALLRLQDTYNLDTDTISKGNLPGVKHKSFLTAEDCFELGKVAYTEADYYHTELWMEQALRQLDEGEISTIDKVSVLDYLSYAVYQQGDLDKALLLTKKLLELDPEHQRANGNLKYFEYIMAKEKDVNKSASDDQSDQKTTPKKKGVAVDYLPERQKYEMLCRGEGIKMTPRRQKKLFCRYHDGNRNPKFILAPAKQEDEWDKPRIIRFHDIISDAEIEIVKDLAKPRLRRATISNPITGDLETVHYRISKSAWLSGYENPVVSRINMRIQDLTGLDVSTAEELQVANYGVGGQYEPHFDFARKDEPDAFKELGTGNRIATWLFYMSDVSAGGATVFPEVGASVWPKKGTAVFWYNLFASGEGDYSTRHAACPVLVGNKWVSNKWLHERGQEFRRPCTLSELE

[7] = target: T7, HeLa cell extract proteins (Homo sapiens, UniProt P26038)
T7 construct: endogenous in cells; host or cells: HeLa cell extract
T7 sequence (P26038 whole entry): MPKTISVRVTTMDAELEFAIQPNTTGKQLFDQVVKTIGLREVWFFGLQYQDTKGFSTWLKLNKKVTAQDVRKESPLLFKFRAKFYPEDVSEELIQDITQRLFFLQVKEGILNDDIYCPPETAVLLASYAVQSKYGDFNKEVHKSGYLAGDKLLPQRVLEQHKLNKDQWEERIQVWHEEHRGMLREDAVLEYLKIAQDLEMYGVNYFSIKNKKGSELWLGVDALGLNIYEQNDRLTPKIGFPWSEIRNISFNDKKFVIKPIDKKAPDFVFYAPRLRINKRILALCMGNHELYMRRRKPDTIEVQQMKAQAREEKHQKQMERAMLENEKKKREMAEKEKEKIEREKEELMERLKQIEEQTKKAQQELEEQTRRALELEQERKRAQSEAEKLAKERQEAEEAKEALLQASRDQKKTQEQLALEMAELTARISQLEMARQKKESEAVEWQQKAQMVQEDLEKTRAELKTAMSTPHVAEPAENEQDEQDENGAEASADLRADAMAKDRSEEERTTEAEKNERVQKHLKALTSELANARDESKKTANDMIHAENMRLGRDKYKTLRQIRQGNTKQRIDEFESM

[8] = target: T8, HeLa cell extract proteins (Homo sapiens, UniProt Q99436)
T8 construct: endogenous in cells; host or cells: HeLa cell extract
T8 sequence (Q99436 44-277): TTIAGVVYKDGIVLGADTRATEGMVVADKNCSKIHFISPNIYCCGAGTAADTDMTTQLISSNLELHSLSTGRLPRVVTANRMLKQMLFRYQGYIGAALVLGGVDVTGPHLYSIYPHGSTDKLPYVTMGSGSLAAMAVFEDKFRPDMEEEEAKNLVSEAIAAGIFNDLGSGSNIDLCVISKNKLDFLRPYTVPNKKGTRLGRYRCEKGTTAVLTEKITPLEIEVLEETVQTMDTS

[9] = target: T9, HeLa cell extract proteins (Homo sapiens, UniProt P30041)
T9 construct: endogenous in cells; host or cells: HeLa cell extract
T9 sequence (P30041 1-224): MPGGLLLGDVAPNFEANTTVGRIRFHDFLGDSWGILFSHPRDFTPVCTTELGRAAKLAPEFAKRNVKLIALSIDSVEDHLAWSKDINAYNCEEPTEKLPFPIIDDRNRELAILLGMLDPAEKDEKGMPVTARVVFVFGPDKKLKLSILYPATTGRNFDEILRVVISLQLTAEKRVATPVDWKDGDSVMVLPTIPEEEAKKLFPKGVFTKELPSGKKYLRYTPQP

[10] = HeLa, protein SET (ISOFORM 1 OF PROTEIN SET.)
[11] = HeLa, protein PRDX6 (PEROXIREDOXIN-6.)
[12] = HeLa, protein ANAPC1 (ANAPHASE-PROMOTING COMPLEX SUBUNIT 1)
[13] = HeLa, protein PSMB7 ([…] BETA TYPE 7 PRECURSOR)

T1 sequence (O75947 whole entry): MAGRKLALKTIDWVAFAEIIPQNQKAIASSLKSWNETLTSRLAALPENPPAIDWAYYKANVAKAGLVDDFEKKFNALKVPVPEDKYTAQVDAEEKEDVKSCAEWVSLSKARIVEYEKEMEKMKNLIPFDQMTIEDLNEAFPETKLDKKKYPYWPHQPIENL

Compound: Nc1nc2cccc(-c3ccccc3)c2n1Cc1ccc(Cl)c(Cl)c1 [compound 3]
- fold changes relative to vehicle control ([1]; protein ATP5H, HeLa): 0.94
- fold changes relative to vehicle control [2, 10]: 0.9 fold
- fold changes relative to vehicle control ([3]; protein COPA, HeLa): 0.93
- fold changes relative to vehicle control ([4]; captured protein PFKM, HeLa): 1.01
- fold changes relative to vehicle control ([5]; HeLa, protein ANAPC1): 1.21
- fold changes relative to vehicle control ([6]; HeLa, protein P4HA1): 0.98
- fold changes relative to vehicle control ([7]; protein MSN, HeLa): 0.77
- fold changes relative to vehicle control ([8]; protein PSMB7, HeLa): 0.99
- fold changes relative to vehicle control [9, 11]: 0.92 fold

Compound: CCCCCCOc1ccc(Cc2cnc(N)nc2N)cc1 [compound 1]
- fold changes relative to vehicle control ([1]; protein ATP5H, HeLa): 1.11
- fold changes relative to vehicle control [2, 10]: 2.11 fold
- fold changes relative to vehicle control ([3]; protein COPA, HeLa): 1.07
- fold changes relative to vehicle control ([4]; captured protein PFKM, HeLa): 1.15
- fold changes relative to vehicle control ([5]; HeLa, protein ANAPC1): 1.05
- fold changes relative to vehicle control ([6]; HeLa, protein P4HA1): 0.9
- fold changes relative to vehicle control ([7]; protein MSN, HeLa): 1.07
- fold changes relative to vehicle control ([8]; protein PSMB7, HeLa): 1.17
- fold changes relative to vehicle control [9, 11]: 1.45 fold

Compound: NCCCNc1ccc(C(=O)NC(CCC(=O)O)C(=O)O)cc1 (stereo not drawn) [compound 7]
- fold changes relative to vehicle control ([1]; HeLa, captured protein ATP5H): 0.96
- fold changes relative to vehicle control ([2]; HeLa, captured protein SET): 0.84
- fold changes relative to vehicle control ([3]; protein COPA, HeLa): 0.89
- fold changes relative to vehicle control ([4]; HeLa, captured protein PFKM): 1.02
- fold changes relative to vehicle control [5, 12]: 1.18
- fold changes relative to vehicle control ([6]; HeLa, captured protein P4HA1): 1.04
- fold changes relative to vehicle control ([7]; HeLa, protein MSN): 0.81
- fold changes relative to vehicle control [8, 13]: 1.08
- fold changes relative to vehicle control ([9]; HeLa, protein PRDX6): 1.01

Compound: CCCCCCOc1cccc(Cc2cnc(N)nc2N)c1 [compound 2]
- fold changes relative to vehicle control ([1]; protein ATP5H, HeLa): 0.88
- fold changes relative to vehicle control [2, 10]: 3.28 fold
- fold changes relative to vehicle control ([3]; protein COPA, HeLa): 1.31
- fold changes relative to vehicle control ([4]; captured protein PFKM, HeLa): 1.2
- fold changes relative to vehicle control ([5]; HeLa, protein ANAPC1): 1.15
- fold changes relative to vehicle control ([6]; HeLa, protein P4HA1): 1.05
- fold changes relative to vehicle control ([7]; protein MSN, HeLa): 1.81
- fold changes relative to vehicle control ([8]; protein PSMB7, HeLa): 1.28
- fold changes relative to vehicle control [9, 11]: 2.27 fold

Compound: NCCOCCOCC(=O)Nc1nc2ncc(CNc3ccc(C(=O)NC(CCC(=O)O)C(=O)O)cc3)nc2c(=O)[nH]1 (stereo not drawn) [compound 6]
- fold changes relative to vehicle control ([1]; HeLa, captured protein ATP5H): 0.92
- fold changes relative to vehicle control ([2]; HeLa, captured protein SET): 1.16
- fold changes relative to vehicle control ([3]; protein COPA, HeLa): 1
- fold changes relative to vehicle control ([4]; HeLa, captured protein PFKM): 1.02
- fold changes relative to vehicle control [5, 12]: 1.1
- fold changes relative to vehicle control ([6]; HeLa, captured protein P4HA1): 1
- fold changes relative to vehicle control ([7]; HeLa, protein MSN): 1.08
- fold changes relative to vehicle control [8, 13]: 2.16
- fold changes relative to vehicle control ([9]; HeLa, protein PRDX6): 1.33

Compound: Nc1nc2[nH]cc(CCc3ccc(C(=O)N[C@@H](CCC(=O)O)C(=O)O)cc3)c2c(=O)[nH]1 [PTX, pemetrexed]
- fold changes relative to vehicle control [1]: 1.03
- fold changes relative to vehicle control [2]: 1.08
- fold changes relative to vehicle control [3]: 0.82
- fold changes relative to vehicle control [4]: 0.98
- fold changes relative to vehicle control [5]: 1.1
- fold changes relative to vehicle control [6]: 0.88
- fold changes relative to vehicle control [7]: 0.97
- fold changes relative to vehicle control [8]: 1.6
- fold changes relative to vehicle control [9]: 1.21

Compound: Nc1nc2c(c(=O)[nH]1)N(C=O)C(CNc1ccc(C(=O)N[C@@H](CCC(=O)O)C(=O)O)cc1)CN2 (stereo partly drawn) [LEU, leucovorin]
- fold changes relative to vehicle control ([1]; HeLa, captured protein ATP5H): 0.91
- fold changes relative to vehicle control ([2]; HeLa, captured protein SET): 0.98
- fold changes relative to vehicle control ([3]; protein COPA, HeLa): 0.81
- fold changes relative to vehicle control ([4]; HeLa, captured protein PFKM): 1.01
- fold changes relative to vehicle control [5, 12]: 1.09
- fold changes relative to vehicle control ([6]; HeLa, captured protein P4HA1): 1.02
- fold changes relative to vehicle control ([7]; HeLa, protein MSN): 0.93
- fold changes relative to vehicle control [8, 13]: 1.19
- fold changes relative to vehicle control ([9]; HeLa, protein PRDX6): 1.05
